Data from patent US20160223554A1, “METHODS FOR DIAGNOSIS, PROGNOSIS AND METHODS OF TREATMENT” (priority 2011, published 2016).

Tests used:
AML blasts [1] = experiment: SCNP phospho-flow signaling nodes in AML PBMC (Example 2, Study No. 1); format: cell-based, human; conditions: for Mean Value of CRs: CR patients; for Mean Value of CRs / Mean Value of NRs: Study No. 1; for Mean Value of NRs: NR patients
Protocol: Frozen cells are thawed in a 37° C. water bath and gently resuspended in the vial and transferred to the 15 mL conical tube. The 15 mL tube is centrifuged at 930 RPM (200×g) for 8 minutes at room temperature. The supernatant is aspirated and the pellet is gently resuspended in 1 mL media A. The cell suspension is filtered through a 70 um cell strainer into a new 15 mL tube. The cell strainer is rinsed with 1 mL media A and another 12 ml of media A into the 15 mL tube. The cells are mixed into an even suspension. A 20 μL aliquot is immediately removed into a 96-well plate containing 180 μL PBS+4% FBS+CD45 Alexa 700+PI to determine cell count and viability post spin. After the determination, the 15 mL tubes are centrifuged at 930 RPM (200×g) for 8 minutes at room temperature. The supernatant is aspirated and the cell pellet is gently resuspended in 4 mL PBS+4 μL Amine Aqua and incubated for 15 min in a 37° C. incubator. 10 mL RPMI+1% FBS is added to the cell suspension and the tube is inverted to mix the cells. The 15 mL tubes are centrifuged at 930 RPM (200×g) for 8 minutes at room temperature. The cells are resuspended in Media A at the desired cell concentration (1.25×10^6/mL). For samples with low numbers of cells (<18.5×10^6), the cells are resuspended in up to 15 mL media. For samples with high numbers of cells (>18.5×10^6), the volume is raised to 10 mL with media A and the desired volume is transferred to a new 15 mL tube, and the cell concentration is adjusted to 1.25×10^6 cells/ml. 1.6 mL of the above cell suspension (concentration at 1.25×10^6 cells/ml) is transferred into wells of a multi-well plate. From this plate, 80 ul is dispensed into each well of a subsequent plate. The plates are covered with a lid (Nunc) and placed in a 37° C. incubator for 2 hours to rest.
A concentration for each stimulant that is five folds more (5×) than the final concentration is prepared using Media A as diluent. 5× stimuli are arrayed into wells of a standard 96 well v-bottom plate that correspond to the wells on the plate with cells to be stimulated.
Adding the stimulant: The cell plate(s) are taken out of the incubator and placed in a 37° C. water bath next to the pipette apparatus. The cell plate is taken from the water bath and gently swirled to resuspend any settled cells. With pipettor, the stimulant is dispensed into the cell plate and vortexed at “7” for 5 seconds. The deep well plate is put back into the water bath.
The plate is covered with foil sealer and incubated in a 37° C. water bath for 10 minutes. The plate is spun for 6 minutes at 2000 rpm at room temperature. The cells are aspirated using a 96 well plate aspirator (VP Scientific). The plate is vortexed to resuspend cell pellets in the residual volume. The pellet is ensured to be dispersed before the Methanol step (see cell permeabilization) or clumping will occur.
Cell Permeabilization: Permeability agent, for example methanol, is added slowly and while the plate is vortexing. To do this, the cell plate is placed on titer plate shaker and made sure it is secure. The plate is set to shake using the highest setting. A pipetter is used to add 0.6 mls of 100% methanol to the plate wells. The plate(s) are put on ice until this step has been completed for all plates. Plates are covered with a foil seal using the plate roller to achieve a tight fit. At this stage the plates can be stored at −80° C.
Cells are thawed if frozen. Cells are pelleted at 2000 rpm 5 minutes. Supernatant is aspirated with vacuum aspirator. Plate is vortexed on a “plate vortex” for 5-10 seconds. Cells are washed with 1 mL FACS buffer. Repeat the spin, aspirate and vortex steps as above. 50 μL of FACS/stain buffer with the desired, previously optimized, antibody cocktail is added to two rows of cells at a time and agitate the plate. The plate is covered and incubated in a shaker for 30 minutes at room temperature (RT). During this incubation, the compensation plate is prepared.

AML blasts [2] = experiment: SCNP signaling and apoptosis nodes in AML BMMC (Example 4, Study No. 2); format: cell-based, human
[3] = Total Phospho metric, Study No. 1, CRp patient included in NR group
[4] = read-out p-Stat3, metric TotalPhospho
[5] = Study No.2, patients less than 60 years old
[6] = Study No.2, patients with De Novo AML
[7] = read-out p-Stat1, metric TotalPhospho
[8] = Fold metric, all patients, Study No. 2
[9] = read-out p-Erk, metric TotalPhospho
[10] = Fold metric, Study No. 1, CRp patient included in NR group
[11] = read-out p-CREB, metric TotalPhospho
[12] = read-out p-S6, metric TotalPhospho

Compound: GM-CSF
- Mean Value of CRs, p-Stat3 (AML blasts [1]; [3]): 0.83
- Mean Value of NRs, p-Stat3 (AML blasts [1]; [3]): 1.23
- Mean Value of CRs (AML blasts [1]; [4]): 0.84
- Mean Value of NRs (AML blasts [1]; [4]): 1.24
- Mean Value of CRs, p-Stat3 TotalPhospho (AML blasts [2]; [5]): 1.51
- Mean Value of NRs, p-Stat3 TotalPhospho (AML blasts [2]; [5]): 2.35
- Mean Value of CRs, p-Stat3 TotalPhospho (AML blasts [2]; [6]): 1.51
- Mean Value of NRs, p-Stat3 TotalPhospho (AML blasts [2]; [6]): 2.22

Compound: IL-10: cytokine modulator
- Mean Value of CRs, p-Stat3 (AML blasts [1]; [3]): 0.72
- Mean Value of NRs, p-Stat3 (AML blasts [1]; [3]): 1.69
- Mean Value of CRs (AML blasts [1]; [7]): 0.20
- Mean Value of NRs (AML blasts [1]; [7]): 0.47
- Mean Value of CRs (AML blasts [1]; [4]): 0.82
- Mean Value of NRs (AML blasts [1]; [4]): 1.69
- Mean Value of CRs, p-Stat3 (AML blasts [2]; [8]): 0.08
- Mean Value of CRs, p-Stat5 (AML blasts [2]; [8]): 0.09
- Mean Value of NRs, p-Stat3 (AML blasts [2]; [8]): 0.39
- Mean Value of NRs, p-Stat5 (AML blasts [2]; [8]): 0.43
- Mean Value of CRs, p-Stat3 TotalPhospho (AML blasts [2]; [5]): 1.67
- Mean Value of NRs, p-Stat3 TotalPhospho (AML blasts [2]; [5]): 2.90
- Mean Value of CRs, p-Stat3 Fold (AML blasts [2]; [6]): 0.05
- Mean Value of CRs, p-Stat3 TotalPhospho (AML blasts [2]; [6]): 1.63
- Mean Value of CRs, p-Stat5 Fold (AML blasts [2]; [6]): 0.0
- Mean Value of NRs, p-Stat3 Fold (AML blasts [2]; [6]): 0.45
- Mean Value of NRs, p-Stat3 TotalPhospho (AML blasts [2]; [6]): 2.68
- Mean Value of NRs, p-Stat5 Fold (AML blasts [2]; [6]): 0.43

Compound: CN[C@@H]1C[C@H]2O[C@@](C)([C@@H]1OC)n1c3ccccc3c3c4c(c5c6ccccc6n2c5c31)C(=O)NC4 [Stautospotine]
- Mean Value of CRs, c-PARP Fold (AML blasts [2]; [5]): 3.47
- Mean Value of NRs, c-PARP Fold (AML blasts [2]; [5]): 7.06

Compound: EPO
- Mean Value of CRs, p-Stat1 (AML blasts [1]; [3]): 0.17
- Mean Value of CRs, p-Stat3 (AML blasts [1]; [3]): 0.64
- Mean Value of NRs, p-Stat1 (AML blasts [1]; [3]): 0.42
- Mean Value of NRs, p-Stat3 (AML blasts [1]; [3]): 1.23
- Mean Value of CRs (AML blasts [1]; [7]): 0.20
- Mean Value of NRs (AML blasts [1]; [7]): 0.42
- Mean Value of CRs (AML blasts [1]; [4]): 0.72
- Mean Value of NRs (AML blasts [1]; [4]): 1.23

Compound: TNFα
- Mean Value of CRs (AML blasts [1]; [9]): 1.25
- Mean Value of NRs (AML blasts [1]; [9]): 1.65

Compound: C/C=C(/C)C(=O)O[C@H]1C(C)=C2[C@H]([C@@H]1OC(=O)CCCCCCC)[C@@](C)(OC(C)=O)C[C@H](OC(=O)CCC)[C@@]1(O)[C@H]2OC(=O)[C@@]1(C)O [Thapsigargin, reference compound]
- Mean Value of CRs, p-S6 (AML blasts [1]; [10]): 0.03
- Mean Value of NRs, p-S6 (AML blasts [1]; [10]): 0.31
- Mean Value of CRs, p-CREB (AML blasts [1]; [3]): 1.79
- Mean Value of CRs, p-S6 (AML blasts [1]; [3]): 0.31
- Mean Value of NRs, p-CREB (AML blasts [1]; [3]): 2.77
- Mean Value of NRs, p-S6 (AML blasts [1]; [3]): 0.67
- Mean Value of CRs (AML blasts [1]; [11]): 1.90
- Mean Value of NRs (AML blasts [1]; [11]): 2.76
- Mean Value of CRs (AML blasts [1]; read-out p-S6, metric Fold): 0.04
- Mean Value of NRs (AML blasts [1]; read-out p-S6, metric Fold): 0.32
- Mean Value of CRs (AML blasts [1]; [12]): 0.31
- Mean Value of NRs (AML blasts [1]; [12]): 0.68
- Mean Value of CRs, p-Erk (AML blasts [2]; [8]): 1.22
- Mean Value of NRs, p-Erk (AML blasts [2]; [8]): 0.36
- Mean Value of CRs, p-CREB TotalPhospho (AML blasts [2]; [5]): 2.83
- Mean Value of CRs, p-Erk Fold (AML blasts [2]; [5]): 1.28
- Mean Value of NRs, p-CREB TotalPhospho (AML blasts [2]; [5]): 3.71
- Mean Value of NRs, p-Erk Fold (AML blasts [2]; [5]): 0.40
- Mean Value of CRs, p-Erk Fold (AML blasts [2]; [6]): 1.28
- Mean Value of NRs, p-Erk Fold (AML blasts [2]; [6]): 0.27
